Where a SMILES comes first, the peptide text is derived from it. [ ]: non-standard residue; d: D form. ξ: configuration not given here. Aoe(9ξ) = N[C@@H](CCCCCC(=O)C1CO1)C(=O)O; dPip = O=C(O)[C@H]1CCCCN1
Columns and labels:
Assay type in all cases: cell-based, human
[1] = system: normal esophageal epithelium cell line EACN42; experiment: FDA library drug sensitivity testing (CellTiter-Glo, 72 h), normal control cells; parameters: key to DSS: modified drug sensitivity score (DSSmod) from dose-response curve fit; details: EACN42 normal esophageal cells, 72 h; for EC50: cell viability (ATP), max test concentration 10μM; for DSS: drug sensitivity score
Outline: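 HPV E6-E7-immortalized normal human esophageal epithelial cells, 1000 per well, exposed 72 h at 37 °C to drugs in duplicate from 10μM top concentration across a 20,000-fold range. Viability by ATP bioluminescence; DMSO wells as negative control; curves scored with modified drug sensitivity score (DSSmod).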

EAC42 cells [2] = experiment: FDA library drug sensitivity testing (CellTiter-Glo, 72 h)
Outline: (§1)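 1000 cells/well exposed 72 h at 37 °C to drugs in duplicate, top concentration 10μM over a 20,000-fold range; DMSO wells as negative controls. Viability by ATP bioluminescence (CellTiter-Glo). Curves scored with the modified drug sensitivity score (DSSmod/sDSSmod).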

EAC47 cells [3] = experiment: as above
Outline: as §1

EAC42 cells [4] = experiment: Clonogenic survival assay
Method: (§2) Clonogenic assays were performed as described previously. […] Colony formation was evaluated 14 days after seeding. All experiments were performed in triplicates and two biological replicates. Statistical analyses were performed in GraphPad prism.

EAC47 cells [5] = experiment: Clonogenic survival assay
Method: as §2

EAC47 cells [6] = experiment: Epigenetic compound library screen (CellTiter-Glo, 72 h); details: EAC47, 6μM, 72 h; for cytotoxicity at 6 µM: Homo sapiens, read-out: % cell killing /control
Method: (§3) We tested a 163 compound epigenetic library that consists of inhibitors and activators of epigenetic modifying enzymes (writers, erasers and readers). All compounds were dissolved in 100% DMSO and tested in duplicate at a nominal test concentration of 6μM. Wells with assay buffer containing DMSO served as negative controls. 1000 exponentially growing cells were seeded per well in 384-well micro-titer plates and incubated in the presence of compounds in a humidified environment at 37°C and 5% CO2. After 72 hours of treatment, cell viability was assessed by measuring ATP levels via bioluminescence (CellTiter-Glo, Promega). […] Curve fitting and statistical analyses are performed in GraphPad prism.

Flo-1 cells [7] = experiment: as above; details: Flo-1, 6μM; for cytotoxicity at 6 µM: Homo sapiens, read-out: % cell killing /control
Method: as §3

OE33 cells [8] = experiment: as above; details: OE33, 6μM; for cytotoxicity at 6 µM: Homo sapiens, read-out: % cell killing /control
Method: as §3

OE19 cells = experiment: FDA library drug sensitivity testing (CellTiter-Glo, 72 h); details: sDSSmod = DSSmod (patient cells) - DSSmod (normal cells)
Outline: as §1

OE33 cells [9] = experiment: as above; details: OE33; sDSSmod = DSSmod (patient cells) - DSSmod (normal cells)
Outline: as §1

Flo-1 cells [10] = experiment: as above; details: Flo-1; sDSSmod = DSSmod (patient cells) - DSSmod (normal cells)
Excerpt: OE33, OE19 and SKGT2 human esophageal adenocarcinoma cell lines were obtained from the European Collection of Cell Culture ([…]). Flo1, EAC42 and EAC47 cells were established in the Capobianco Laboratory. EAC42 and EAC47 human esophageal adenocarcinoma cell lines are derived from patients undergoing surgery at the Miller School of Medicine, University of Miami. The Capobianco laboratory obtained written informed consent from all patients and approval from the Institutional Research Ethics Committee.
Drug sensitivity testing (DST) was performed as described previously. […] Individual drugs were dissolved in 100% DMSO and tested in duplicates starting at a maximal test concentration of 10μM then over a 20,000-fold concentration range to generate dose response curves. Wells with assay buffer containing DMSO served as negative controls. 1000 exponentially growing cells were seeded per well in 384-well micro-titer plates and incubated in the presence of compounds in a humidified environment at 37°C and 5% CO2. After 72 hours of treatment, cell viability was assessed by measuring ATP levels via bioluminescence (CellTiter-Glo, Promega) according to manufactures recommendations. Interpretation of curve parameters was performed according to the modified drug sensitivity scoring (DSSmod) function developed by Swords et al. As a final step, the selective DSSmod (sDSSmod) for each drug in each patient screen is calculated according to the formula sDSSmod = DSSmod (patient cells)—DSSmod (normal cells). Given in this way, the sDSSmod incorporated information on each drug’s potency, efficacy, effect range and therapeutic index, making it possible to prioritize compounds over multiple parameters using a single numerical metric. In addition, this methodology allows us to rank compounds by cancer-selective efficacy for each individual patient. […] All calculations and scoring routines are implemented in MatLab and additional curve fitting and statistical analyses are performed in GraphPad prism.

## N.N.[Cl][Pt][Cl] [Cisplatin]
[1]
  treatment response in words: minimal treatment effects
  EC50: 10 nM
  DSS: 0
EAC42 cells [2]; EAC42, concentration of 10μM
  reduction of cell survival in words: did not result in a reduction of cell survival
EAC47 cells [3]; EAC47, concentration of 10μM
  reduction of cell survival in words: did not result in a reduction of cell survival
EAC42 cells [4]; EAC42, 10μM cisplatin for 24h
  clonogenic survival: 89.19%
EAC42 cells [4]; EAC42, 50μM cisplatin for 24h
  clonogenic survival: 50.1%
EAC47 cells [5]; EAC47, 10μM cisplatin for 24h
  clonogenic survival: 95.75%
EAC47 cells [5]; EAC47, 50μM cisplatin for 24h
  clonogenic survival: 28.64%

## Nc1ccccc1NC(=O)c1ccc(CNC(=O)OCc2cccnc2)cc1 [Entinostat (MS-275), Entinostat]
EAC47 cells [6]
  cytotoxicity at 6 µM: 36.6%
Flo-1 cells [7]
  cytotoxicity at 6 µM: 43.3%
OE33 cells [8]
  cytotoxicity at 6 µM: 76%

## Nc1ccn([C@@H]2O[C@H](CO)[C@@H](O)C2(F)F)c(=O)n1 [Gemcitabine]
[1]
  EC50: 320 nM
  DSS: 17.72
EAC42 cells [2]; EAC42, sDSSmod = DSSmod (patient cells) - DSSmod (normal cells)
  sDSSmod: 14.66
EAC42 cells [2]; Homo sapiens, EAC42, assay not stated explicitly, taken as DST screen, read-out: calculated EC50
  EC50: 6.6 nM
EAC47 cells [3]; EAC47, sDSSmod = DSSmod (patient cells) - DSSmod (normal cells)
  sDSSmod: 8.407
EAC47 cells [3]; Homo sapiens, EAC47, assay not stated explicitly, taken as DST screen, read-out: calculated EC50
  EC50: 10.7 nM
OE19 cells
  sDSSmod: -16.819
OE33 cells [9]
  sDSSmod: 9.443
Flo-1 cells [10]
  sDSSmod: -5
EAC42 cells [4]; EAC42, 10nM gemcitabine for 2h, colonies after 14 days
  clonogenic survival: 59.26%
EAC47 cells [5]; EAC47, 10nM gemcitabine for 2h, colonies after 14 days
  clonogenic survival: 63.28%

## CCN(CC)Cc1ccc2cc(COC(=O)Nc3ccc(C(=O)NO)cc3)ccc2c1 [Givinostat (ITF2357), Givinostat]
EAC47 cells [6]
  cytotoxicity at 6 µM: 96.8%
Flo-1 cells [7]
  cytotoxicity at 6 µM: 90.9%
OE33 cells [8]
  cytotoxicity at 6 µM: 87.7%

## Cn1cc(CNCC2CCN(c3ncc(C(=O)NO)cn3)CC2)c2ccccc21 [JNJ-26481585]
EAC47 cells [6]
  % cell killing /control: 113.73%
Flo-1 cells [7]
  % cell killing /control: 98.39%
OE33 cells [8]
  % cell killing /control: 99.54%

## O=C(/C=C/c1ccc(CN(CCO)CCc2c[nH]c3ccccc23)cc1)NO [LAQ824]
EAC47 cells [6]
  cytotoxicity at 6 µM: 108%
Flo-1 cells [7]
  cytotoxicity at 6 µM: 96.8%
OE33 cells [8]
  cytotoxicity at 6 µM: 99%

## O=C(CCCCC[C@@H]1NC(=O)[C@H]2CCCCN2C(=O)[C@H](Cc2ccccc2)NC(=O)[C@H](Cc2ccccc2)NC1=O)C1CO1 (some centres unmarked) [Trapoxin A] (cyclo(FF[dPip][Aoe(9ξ)]))
EAC47 cells [6]
  cytotoxicity at 6 µM: 102%
Flo-1 cells [7]
  cytotoxicity at 6 µM: 96.4%
OE33 cells [8]
  cytotoxicity at 6 µM: 98.9%

## CC(/C=C/C(=O)NO)=C\[C@@H](C)C(=O)c1ccc(N(C)C)cc1 [Trichostatin A]
EAC47 cells [6]
  % cell killing /control: 109.49%
Flo-1 cells [7]
  % cell killing /control: 96.32%
OE33 cells [8]
  % cell killing /control: 98.02%

Reference: article PMC6136712, “Ex vivo drug sensitivity testing as a means for drug repurposing in esophageal adenocarcinoma” (PLoS ONE, 2018)
